Marks after values point to notes of the source that are not given here.
Key:
[1] = system: human peripheral blood mononuclear cells; assay: Prostaglandin (PGD2, PGE2, 15d-PGJ2) production by human peripheral blood mononuclear cells with/without TNF-α, EIA (Example 2); format: cell-based
Description: Mononuclear cells (monocytes and lymphocytes) were prepared by subjecting 48 ml of whole human blood to Ficoll/hypaque density centrifugation. Blood was layered on top of the ficoll (density=1.077 g/ml) and centrifuged at 400 g for 1 hour (22° C.), after which cells at the interphase were removed by pipette and transferred to fresh tubes. Tubes were filled with RPMI 1640 culture medium (2 volumes) thoroughly mixed and then centrifuged at 400 g for 5 minutes (22° C.). The supernatant was discarded and the cell pellet was re-suspended in RPMI 1640 culture medium and the volume adjusted to give the appropriate number of cells per incubation as indicated in the results section below. Cells were incubated in sterile plastic 1.5 ml tubes in a final volume of 1 ml RPMI 1640 medium for 18 hours at 37° C., 5% CO2 in air and 100% humidity. 7β-OH-EPIA was then added and cells incubated for a further hour at 37° C. before adding recombinant human Tumour Necrosis Factor-α (TNF-α) and incubations continued for a further 3 hours. 7β-OH-EPIA was prepared in dimethyl sulphoxide (DMSO), all remaining agents were prepared in RPMI 1640 medium. The requisite controls contained either medium or the same concentration of DMSO which was always <0.1% v/v. Incubations were terminated by centrifuging tubes at 11,000 g for 30 seconds at 22° C. and transferring the supernatants to fresh 1.5 ml tubes. Samples were then either processed immediately for PGD2 estimation as described below or stored at −20° C. prior to PGE2 or 15d-PGJ2 measurement.
Prostaglandin production by human monocytic cells in response to 7β-OH-EPIA in either the absence or presence of stimulation with TNF-α was determined by measuring the extracellular levels of eicosanoid using commercially available EIA kits.
PGD2 cannot be assayed directly from cell supernatants because it is chemically unstable and rapidly degrades to a number of J series prostaglandins including, PGJ2, Δ^12-PGJ2, and 15-deoxy-Δ^12,14-PGJ2. In order to circumvent this problem, unstable PGD2 was chemically treated to give a stable derivative, in this case prostaglandin D2-Methoxamine (PGD2-MOX) which was be stored for subsequent analysis. Immediately following termination of incubations, 100 μl of sample supernatant was added to 1.5 ml tubes containing 100 μl of a Methyl Oximating Reagent (methoxy)amine hydrochloride (MOX-HCl) and sodium acetate dissolved in a 10:90 v/v, ethanol/water solution. Tubes were then placed in a water bath and the reaction allowed to proceed for 30 minutes at 60° C. At the end of this period samples were stored at −80° C. Levels of PGD2 were subsequently estimated using Cayman Chemical's Prostaglandin D2-MOX EIA Kit (Cat. No. 512011).
Extracellular levels of PGE2 were estimated using R & D Systems' Parameter PGE2 EIA Kit according to the manufacturer's instructions for the high sensitivity protocol.
Extracellular levels of 15d-PGJ2 were estimated using Assay Designs' Correlate-EIA Prostaglandin 15-deoxy-Δ^12,14-prostaglandin J2 EIA Kit (Cat. No. 900-023) according to the manufacturer's instructions.
Results are expressed as the mean±s.d. for n=3 incubations. An unpaired Students t-Test was used to determine the probability (P) that two sets of data were different from each other. The difference was considered to be significant when P<0.05. Statistical calculations were carried out on an Apple Macintosh computer using the software package Statview, from Abacus Concepts Inc.

[2] = system: COX-2 mRNA; assay: COX-2 mRNA in human PBMC with and without TNF-α, quantitative RT-PCR; format: cell-based
Description: Whole blood was collected from donors in EDTA-supplemented pouches at the Etablissement Français du Sang (Brest, France). The PBMC were isolated then from whole blood under sterile conditions within 36 hours after collection. Gradient density centrifugation was carried out on Ficoll (Eurobio). After washing in RPMI 1640 medium (Eurobio), cells were suspended in RPMI 1640 medium supplemented with 10% heat-inactivated fetal calf serum (Eurobio), 2 mM glutamine (D. Dutscher), 100 U of penicillin/ml (D. Dutscher), and 100 μg of streptomycin/ml (D. Dutscher). Monocytes were selected by plastic adherence for 1 h and approximately 10^7 cells were plated in 6-well tissue culture plates (3 mL medium per well). All incubations were performed in a humidified incubator at 37° C. and 5% CO2. Cells were recovered and dispersed in 2 ml fresh incubation medium supplemented with either 7β-hydroxyEPIA, 7β-hydroxy-DHEA, or 7α-hydroxy-DHEA (in 20 μL ethanol) in the presence or absence of 0.01 μg/mL TNF-α (Sigma-Aldrich). Control incubations contained 20 μl ethanol but no steroid. Supernatants were collected after 4 h and 24 hours incubations for measurement of their PG contents and cells were used for subsequent RNA isolation. A single step extraction method using the Trizol Reagent (Invitrogen, Cergy-Pontoise, France) provided total RNA.
cDNAs were synthesized from TURBO DNase I—treated RNA (Ambion, Huntingdon, UK) using the Superscript first strand synthesis system kit (Invitrogen). RT-PCR amplification mixtures (50 μL) contained 2.5× RealMaster Mix/20×SYBR solution (11.25 μL) (Eppendorf, Le Pecq, France) and 200 nM forward and reverse primers. Reactions were run on a RealPlex ep gradient S mastercycler (Eppendorf). The cycling conditions were 10 minutes at 95° C. and 45 cycles at 95° C., 55° C. and 68° C. for 15 seconds, 30 seconds and 30 seconds, respectively. Each assay included a standard curve of four serial dilution points of control cDNA. The HPRT1 housekeeping gene was used for quantification. All oligonucleotide primers (Table 2) were synthesized by Genecust/Distribio (Evry, France). The specificity of the amplified product was monitored by examining the melting curve of the product and confirmed by analysis on agarose gel electrophoresis.
All assays were carried out in triplicate and results were plotted as mean±S.E.M. One-way analysis of variance was performed followed by Duncan's multiple range tests in order to compare the differences between groups. Differences were considered statistically significant when p<0.05.

## CC12CCC3C(C1CCC2=O)[C@@H](O)C[C@H]1C[C@@H](O)CCC31C (stereo partly drawn) [Compound 7β-OH-EPIA, 7β-hydroxy-EPIAndrosterone]
[1]; 0.1 nM-100 nM, TNF-α (0.5 μg/ml)
  effect on TNF-α-induced PGD2 biosynthesis: no effect
[1]; 0.1 nM-1000 nM, in the presence of TNF-α, vs respective control
  increase in 15d-PGJ2 production: 2-2.5 fold
[1]; 0.1 nM-1000 nM, without TNF-α, vs DMSO controls
  increase in 15d-PGJ2 levels: 9-12 fold
[1]; 0.1 nM, 4 hours, without TNF-α
  15d-PGJ2 levels in cell supernatants: 506 ± 101 pg/mL
[1]; 0.1 nM, TNF-α (10 ng/ml)
  15d-PGJ2 levels in cell supernatants: 348 ± 48 pg/mL
[1]; 1 nM-1000 nM, 4 hours, without TNF-α
  PGE2 levels compared to DMSO controls: not statistically significantly different
[1]; 1 nM, 4 hours, without TNF-α
  15d-PGJ2 levels in cell supernatants: 539 ± 51 pg/mL
[1]; 1 nM, TNF-α (10 ng/ml)
  15d-PGJ2 levels in cell supernatants: 334 ± 24 pg/mL
  PGE2 levels in cell supernatants: 75 ± 25 pg/mL
[1]; 10 nM, 4 hours, without TNF-α
  15d-PGJ2 levels in cell supernatants: 520 ± 45 pg/mL
[1]; 10 nM, TNF-α (10 ng/ml)
  15d-PGJ2 levels in cell supernatants: 356 ± 85 pg/mL
  PGE2 levels in cell supernatants: 82 ± 23 pg/mL
[1]; 100 nM, 4 hours, without TNF-α
  15d-PGJ2 levels in cell supernatants: 450 ± 133 pg/mL
  PGD2 levels in cell supernatants: 102 ± 24 pg/mL
[1]; 100 nM, TNF-α (10 ng/ml)
  15d-PGJ2 levels in cell supernatants: 406 ± 30 pg/mL
  PGE2 levels in cell supernatants: 74 ± 12 pg/mL
[1]; 1000 nM, 4 hours, without TNF-α
  15d-PGJ2 levels in cell supernatants: 590 ± 84 pg/mL
[1]; 1000 nM, TNF-α (10 ng/ml)
  15d-PGJ2 levels in cell supernatants: 318 ± 100 pg/mL
  effect on TNF-α-induced PGE2 production: no effect
[1]; 1000 nM, TNF-α (0.5 μg/ml)
  PGD2 levels in cell supernatants: 164 ± 31 pg/mL
[2]; 1 nM + TNF-α (10 ng/mL), 4 h
  COX-2 (mRNA), mRNA production relative to controls: 7.39 ± 0.282^c
[2]; 1 nM + TNF-α (10 ng/mL), 24 h
  COX-2 (mRNA), mRNA production relative to controls: 2.74 ± 0.555^c
[2]; 1 nM, 4 h, without TNF-α
  COX-2 (mRNA), mRNA production relative to controls: 0.56 ± 0.072^b
[2]; 1 nM, 24 h, without TNF-α
  COX-2 (mRNA), mRNA production relative to controls: 0.82 ± 0.27^b
[2]; 10 nM + TNF-α (10 ng/mL), 4 h
  COX-2 (mRNA), mRNA production relative to controls: 2.75 ± 0.147^d
[2]; 10 nM + TNF-α (10 ng/mL), 24 h
  COX-2 (mRNA), mRNA production relative to controls: 0.94 ± 0.194^d
[2]; 10 nM, 4 h, without TNF-α
  COX-2 (mRNA), mRNA production relative to controls: 0.94 ± 0.048
[2]; 10 nM, 24 h, without TNF-α
  COX-2 (mRNA), mRNA production relative to controls: 1.66 ± 0.408
[2]; 100 nM + TNF-α (10 ng/mL), 4 h
  COX-2 (mRNA), mRNA production relative to controls: 5.76 ± 0.660
[2]; 100 nM + TNF-α (10 ng/mL), 24 h
  COX-2 (mRNA), mRNA production relative to controls: 0.67 ± 0.132^d
[2]; 100 nM, 4 h, without TNF-α
  COX-2 (mRNA), mRNA production relative to controls: 1.10 ± 0.108
[2]; 100 nM, 24 h, without TNF-α
  COX-2 (mRNA), mRNA production relative to controls: 1.05 ± 0.214
